Data published in US20250241347A1, “COMPOSITIONS AND METHODS FOR TASTE MODULATION” (INTERNATIONAL FLAVORS & FRAGRANCES INC., priority 2019, published 2025).

How the values were obtained:
[1] = Masking effect on benzoic acid, trained panel; parameters: species or system human; conditions: base benzoic acid 250 ppm in water; for Masking Intensity: panel average, scale 0-5
Excerpt: (§1) Preparation of Test Samples: […], oroxylin A-7 glucouronide, wogonoside, baicalein, oroxylin A and wogonin were purchased commercially. S. baicalensis extract (“Extract”) and cabohydrase-treated S. baicalensis extract (“Treated Extract”) were obtained as above in Example 1.
(§2) Subsequently, all compounds and extracts were applied to different bases for evaluating their off-taste masking functions.
(§3) Testing Procedure: The masking effects on the off-tastes (bitterness, sourness, astringency, lingering and drying aftertaste, etc.) associated with various food components was evaluated by a group of 16 trained panelist. Each provided a rank of masking intensity using the intensity scales of 0 to 5, where 0 represents “no masking effect,” 1 represents “minimal masking intensity” and 5 represents “the most masking intensity.” The average of the reported making intensity is presented in the following examples.
A base solution of benzoic acid was prepared in water (250 ppm). […] The flavor profile of the benzoic acid solutions with compounds or extracts was further evaluated and is reported in the following: […]

[2] = Masking effect on sorbic acid, trained panel; parameters: species or system human; conditions: base sorbic acid 150 ppm in water; for Masking Intensity: panel average, scale 0-5
Excerpt: as §1, §2, §3
A base solution of sorbic acid was prepared in water (150 ppm). […] The flavor profile of the sorbic acid solutions with compounds or extracts were further evaluated and is reported in the following: […]

[3] = Masking effect on Reb A, trained panel; parameters: species or system human; conditions: base Reb A 200 ppm in water; for Masking Intensity: panel average, scale 0-5
Excerpt: as §1, §2, §3
A base solution of Reb A was prepared in water (200 ppm). […] The flavor profile of the Reb A solutions with compounds or extracts were further evaluated and is reported in the following: […]

[4] = Masking effect on pea protein, trained panel; parameters: species or system human; conditions: base TRUPRO pea protein 5% in water, test sample 0.5 ppm; for Masking Intensity: panel average, scale 0-5
Excerpt: as §1, §2, §3
A base solution of TRUPRO® pea protein (Solae LLC) was prepared in water (5%). […] The flavor profile of the pea protein solutions with compounds or extracts were further evaluated and is reported in the following: […]

[5] = Masking effect on citric acid, trained panel; parameters: species or system human; conditions: base citric acid 300 ppm in water; for Masking Intensity: panel average, scale 0-5
Excerpt: as §1, §2, §3
A base solution of citric acid was prepared in water (300 ppm). […] The flavor profile of the citric acid solutions with compounds or extracts were further evaluated and is reported in the following: […]

[6] = Masking effect on Acesulfame-K, trained panel; parameters: species or system human; conditions: base Acesulfame-K 300 ppm in water; for Masking Intensity: panel average, scale 0-5
Excerpt: as §1, §2, §3
A base solution of Acesulfame-K was prepared in water (300 ppm). […] The flavor profile of the Acesulfame-K solutions with compounds or extracts were further evaluated and is reported in the following: […]

[7] = Masking effect on Reb M, trained panel; parameters: species or system human; conditions: base Reb M 200 ppm in water, test sample 0.5 ppm; for Masking Intensity: panel average, scale 0-5
Excerpt: as §1, §2, §3
A base solution of Reb M was prepared in water (200 ppm). […] The flavor profile of the Reb M solutions with compounds or extracts were further evaluated and is reported in the following: […]

[8] = Taste modulating activity of the individual compounds; conditions: for taste modulating activity: individual compounds, Example 1; for taste modulation effect: flavone aglycones versus corresponding flavone glycosides
Procedure: With bio-transformation, most baicalin was converted to baicalein; oroxylin A glucuronide was converted to oroxylin A; and wogonoside was converted to wogonin. The activity of the individual compounds was also analyzed for taste modulating activity.

healthy subjects = conditions: oral doses in the range of 100-2800 mg; cited from earlier work

O=c1cc(-c2ccccc2)oc2cc(O)c(O)c(O)c12 [Baicalein, 5,6,7-trihydroxyflavone]
Masking Intensity ([1]; test sample 0.5 ppm): 3 | Masking Intensity ([2]; test sample 0.001 ppm): 0 | Masking Intensity ([2]; test sample 0.01 ppm): 1 | Masking Intensity ([2]; test sample 0.1 ppm): 2 | Masking Intensity ([2]; test sample 0.5 ppm): 3 | Flavor Profile ([2]; test sample 1 ppm): Reduced astringency, sourness, and drying | Masking Intensity ([2]; test sample 1 ppm): 4 | Flavor Profile ([2]; test sample 10 ppm): Reduced astringency, sourness, and drying | Masking Intensity ([2]; test sample 10 ppm): 4 | Flavor Profile ([2]; test sample 50 ppm): Reduced astringency, sourness, and drying | Masking Intensity ([2]; test sample 50 ppm): 3 | Masking Intensity ([3]; test sample 0.5 ppm): 3 | Flavor Profile [4]: Reduced astringency and bitterness, less | Masking Intensity [4]: 3 | Masking Intensity ([5]; test sample 0.01 ppm): 1 | Flavor Profile ([5]; test sample 0.1 ppm): Slightly reduced tart taste | Masking Intensity ([5]; test sample 0.1 ppm): 2 | Flavor Profile ([5]; test sample 0.5 ppm): Reduced tart taste | Masking Intensity ([5]; test sample 0.5 ppm): 3 | Flavor Profile ([5]; test sample 1 ppm): Reduced tart taste | Masking Intensity ([5]; test sample 1 ppm): 4 | Flavor Profile ([5]; test sample 10 ppm): Reduced tart taste, very slight bitterness | Masking Intensity ([5]; test sample 10 ppm): 3 | Flavor Profile ([5]; test sample 50 ppm): Reduced tart taste, noticeable bitterness | Masking Intensity ([5]; test sample 50 ppm): 2 | Flavor Profile ([6]; test sample 0.5 ppm): Slightly reduced bitterness and lingering | Masking Intensity ([6]; test sample 0.5 ppm): 2 | Flavor Profile [7]: Slightly reduced bitterness and lingering | Masking Intensity [7]: 3 | taste modulating activity [8]: more active | safety and tolerability (healthy subjects): safe and well-tolerated

COc1c(OC2OC(C(=O)O)C(O)C(O)C2O)cc2oc(-c3ccccc3)cc(=O)c2c1O [Oroxylin A-7 glucuronide, 5,7-dihydroxy-6-methoxyflavone-7-O-β-D-glucuronopyranoside, reference compound]
Masking Intensity ([1]; test sample 0.5 ppm): 1 | Flavor Profile ([2]; test sample 0.5 ppm): Slightly reduced drying aftertaste | Masking Intensity ([2]; test sample 0.5 ppm): 2 | Flavor Profile ([3]; test sample 0.5 ppm): Slightly reduced astringency, licorice flavor | Masking Intensity ([3]; test sample 0.5 ppm): 1 | Masking Intensity [4]: 1 | Masking Intensity ([5]; test sample 0.5 ppm): 1 | Masking Intensity ([6]; test sample 0.5 ppm): 1 | Flavor Profile [7]: Slightly reduced bitterness and lingering | Masking Intensity [7]: 2 | taste modulation effect [8]: weak taste modulation effect | taste modulating activity [8]: some activity

O=C(O)C1OC(Oc2cc3oc(-c4ccccc4)cc(=O)c3c(O)c2O)C(O)C(O)C1O (centres unmarked) [Baicalin, 5,6-dihydroxy-7-O-glucuronide flavone, reference compound]
Masking Intensity ([1]; test sample 0.5 ppm): 1 | Masking Intensity ([2]; test sample 0.5 ppm): 1 | Masking Intensity ([3]; test sample 0.5 ppm): 1 | Masking Intensity [4]: 1 | Masking Intensity ([5]; test sample 0.5 ppm): 1 | Masking Intensity ([6]; test sample 0.5 ppm): 1 | Masking Intensity [7]: 1 | taste modulation effect [8]: weak taste modulation effect | taste modulating activity [8]: some activity

COc1c(O)cc2oc(-c3ccccc3)cc(=O)c2c1O [Oroxylin A, 5,7-dihydroxy-6-methoxyflavone]
Masking Intensity ([1]; test sample 0.001 ppm): 0 | Masking Intensity ([1]; test sample 0.01 ppm): 1 | Masking Intensity ([1]; test sample 0.1 ppm): 3 | Flavor Profile ([1]; test sample 0.5 ppm): Reduced astringency, sourness, and drying | Masking Intensity ([1]; test sample 0.5 ppm): 4 | Flavor Profile ([1]; test sample 1 ppm): Reduced astringency, sourness, and drying | Masking Intensity ([1]; test sample 1 ppm): 5 | Flavor Profile ([1]; test sample 10 ppm): Reduced astringency, sourness, and drying | Masking Intensity ([1]; test sample 10 ppm): 4 | Flavor Profile ([1]; test sample 50 ppm): Reduced astringency, sourness, and drying | Masking Intensity ([1]; test sample 50 ppm): 3 | Flavor Profile ([2]; test sample 0.5 ppm): Reduced astringency, sourness, and drying | Masking Intensity ([2]; test sample 0.5 ppm): 4 | Flavor Profile ([3]; test sample 0.01 ppm): Slightly reduced astringency, licorice flavor | Masking Intensity ([3]; test sample 0.01 ppm): 2 | Masking Intensity ([3]; test sample 0.1 ppm): 3 | Masking Intensity ([3]; test sample 0.5 ppm): 5 | Masking Intensity ([3]; test sample 10 ppm): 4 | Masking Intensity ([3]; test sample 50 ppm): 2 | Flavor Profile [4]: Reduced astringency and bitterness, less | Masking Intensity [4]: 4 | Flavor Profile ([5]; test sample 0.5 ppm): Reduced tart taste, more pleasant | Masking Intensity ([5]; test sample 0.5 ppm): 5 | Masking Intensity ([6]; test sample 0.01 ppm): 1 | Flavor Profile ([6]; test sample 0.1 ppm): Reduced bitterness and lingering aftertaste | Masking Intensity ([6]; test sample 0.1 ppm): 3 | Flavor Profile ([6]; test sample 0.5 ppm): Reduced bitterness and lingering aftertaste, | Masking Intensity ([6]; test sample 0.5 ppm): 5 | Flavor Profile ([6]; test sample 10 ppm): Reduced lingering aftertaste, very slight | Masking Intensity ([6]; test sample 10 ppm): 4 | Flavor Profile ([6]; test sample 50 ppm): Reduced lingering aftertaste, noticeable | Masking Intensity ([6]; test sample 50 ppm): 2 | Flavor Profile [7]: Reduced bitterness and lingering aftertaste, | Masking Intensity [7]: 5 | taste modulating activity [8]: more active

COc1c(OC2OC(C(=O)O)C(O)C(O)C2O)cc(O)c2c(=O)cc(-c3ccccc3)oc12 [Wogonoside, wogonin 7-O-β-D-glucuronide, reference compound]
Masking Intensity ([1]; test sample 0.5 ppm): 1 | Masking Intensity ([2]; test sample 0.5 ppm): 2 | Flavor Profile ([3]; test sample 0.5 ppm): Slightly reduced astringency, licorice flavor | Masking Intensity ([3]; test sample 0.5 ppm): 1 | Flavor Profile [4]: Slightly reduced astringency and bitterness, | Masking Intensity [4]: 2 | Masking Intensity ([5]; test sample 0.5 ppm): 1 | Masking Intensity ([6]; test sample 0.5 ppm): 1 | Masking Intensity [7]: 1 | taste modulation effect [8]: weak taste modulation effect | taste modulating activity [8]: some activity
